In patent US7268139B2, “Methods of promoting osteogenesis” (Scios, Inc., priority 2002, dated 2007):

Legend:
[1] = system: closed femur fractures in female retired breeder Sprague-Dawley rats; assay: Closed femur fracture healing in rats, radiographic analysis; type: in vivo, rat; conditions: for Radiographic score, Mean: Group C rats, score 0 to 4
Method: Closed femur fractures were made in female retired breeder Sprague-Dawley rats. The rats were given oral doses of the p38 MAP kinase inhibitor (compound 25, Table B)(30 mg/kg) once or twice per day and either vehicle only (control) or rofecoxib (Vioxx, 3 mg/kg, once a day) as a positive control for fracture inhibition.
(§1) Retired breeder female Sprague-Dawley rats were purchased from Taconic Farms. The rats were housed in pairs and given food and water ad libitum. A total of 124 rats were purchased for these experiments (Table 4). However, only 65 rats were used for the final set of experiments as described in Table 4. Drugs were first administered to the rats by gavage using PEG300 (Sigma) as a carrier (0.5 ml per kg). Rats were initially gavaged with drugs 6 hours after surgery (between 4 and 6 PM on day 1) and then twice/day afterwards for 5 days (between 6-8 AM and again between 5-7 PM). The p38 MAP kinase inhibitor used in the experiments is compound 25, Table B. Rofecoxib was obtained by pulverizing Vioxx pills (Merck).
(§2) Rats were anesthetized with a ketamine-xylazine mixture. The right hindlimb was shaved, and cleansed with betadine. A medial parapatellar incision was made through the skin and underlying muscle to the distal end of the femur. The patella was dislocated laterally to expose the femoral condyles. A 20 g needle was used to drill a hole into the distal end of the femur, between the condyles, and then used to ream the femoral canal. A 0.81 mm diameter stainless steel wire was then inserted into the femoral condyle and tamped into the proximal end of the femur. The rod was then trimmed as close as possible to the femoral condyles with wire cutters. The incision was closed in two layers with resorbable Vicryl sutures. A mid-shaft transverse fracture was made in the right femur using a three-point bending device as described previously (Bonnarens, F. and Einhorn, T. A., J. Orthop. Res. 2:97-101 (1984)).
Radiographs were made using an HP Faxitron and Kodak MINR2000 mammography film. Radiographs were photographed with and Olympus C-3040 digital camera for figure preparation. The 4 week post-fracture radiographs from all the rats that had survived to 4 weeks in Group C (rats 60-124) and which were not comminuted, infected, or destabilized were scored as follows. One point was assigned to each radiograph in which a cortex of the fracture callus appeared bridged and/or where the cortical bone fracture site appeared to be bridged by new bone. Thus a radiograph could have a minimal score of 0 or a maximal score of 4.

[2] = system: closed femur fractures in female retired breeder Sprague-Dawley rats; assay: Closed femur fracture healing in rats, torsional mechanical testing; type: in vivo, rat
Method: Torsional mechanical testing was performed on the fractured (right) and contralateral (left) femurs from control, rofecoxib (3 mg/kg/day); p38 MAP kinase inhibitor (30 mg/kg/day), and p38 MAP kinase inhibitor (2×30 mg/kg/day). The stabilizing rods were removed from the femurs prior to testing and the femurs were wrapped in saline soaked gauze to prevent dehydration prior to testing. The ends of the femurs were potted in hex nuts with Wood's metal and the peak torque and angle failure determined using an MTS servohydraulic mechanical testing machine and a 20 Nm reaction torque load cell as per standard procedures (Simon, A. M. et al., J. Bone Miner. Res. 17:963-976 (2002)). Femur and fracture callus dimensions and gage length were measured before and after mechanical testing using digital calipers. The values obtained were used to calculate torsional rigidity, and shear stress as described (Simon, A. M. et al., J. Bone Min. Res., in press (2002)). Finally, the data was normalized as the percentage of the fractured femur relative to the contralateral femur for each animal. This helped to reduce animal-to-animal variability.
as §1, §2
Rats with oblique, comminuted, or infected fractures were not used for mechanical testing (see Appendix A). Both femora were removed and cleaned of all soft tissue leaving the fracture callus undisturbed and then immediately processed for mechanical testing. The samples were wrapped in saline soaked gauze to prevent dehydration between steps. Measurements of the femora were taken using digital calipers to determine femur length and external callus dimensions. The intramedullary pin was removed from the fractured femur. The femoral ends were potted in 1-inch hexnuts using a low melt temperature metal (Wood's metal, Alfa Aesar, Ward Mill, Mass.). Once potted, the gage length (L) of each femur was measured. Torsional testing was conducted using a servohydraulic testing machine (MTS, Eden, Praire, Minn.) with a 20 Nm reaction torque cell (Interface, Scottsdale, Ariz.). The testing was carried out to failure at a rate of 2°/sec and a data recording rate of 20 Hz. Both the fractured and intact femora were tested in internal rotation in proper anatomic orientation. The peak torque and angle at failure were calculated from the load-deformation curves. Internal fracture callus dimensions were measured after mechanical testing. […]

[3] = system: closed femur fractures in female retired breeder Sprague-Dawley rats; assay: Closed femur fracture healing in rats, histology; type: in vivo, rat; conditions: for Fracture callus histology: two weeks post-fracture
Method: as §1, with “Rats were initially gavaged with drugs 6 hours after surgery (between 4 and 6 PM on day 1) and then twice/day afterwards for 5 days (between 6-8 AM and again between 5-7 PM).” left out
as §2
Femurs were dissected from rats at 2, 4, 6, and 8 weeks as detailed in Appendix A. Soft tissue was dissected from the femurs and the femurs were fixed overnight in buffered formalin. The femurs were then embedded in polymethylmethacrylate (PMMA) following standard procedures. Longitudinal sections (˜200 um thick) were cut from the PMMA blocks and ground and polished to a thickness of approximately 50-100 um. The sections were then stained with Van Gieson's picrofuschin and Stevenel's Blue. […] Sections were photographed with an Olympus BH2 microscope.

fracture healing in rats = assay: Prior experiments: fracture healing in rats treated with a COX-2 inhibitor; type: in vivo, rat
Excerpt: The prior set of experiments examining the effects of COX-2-selective NSAIDs on fracture healing used retired breeder male Sprague-Dawley rats with an average size of approximately 600 g. To stabilize the femur fractures in these animals, a stainless steel rod with a diameter of 1.1 mm was used. This same diameter rod was continually used during the initial phases of this study even though 250-300 g retired breeder female Sprague-Dawley rats were used.

[4] = system: mouse model of RA (collagen type II arthritis); assay: Murine collagen type II arthritis, early and advanced disease; type: in vivo
Method: A p38α MAP kinase inhibitor (compound 162, Table B) was evaluated to determine whether a p38 inhibitor could modulate cartilage and bone destruction in a mouse model of RA. Induction of RA was achieved using bovine type II cartilage (100 ug/kg, subcutaneous on days 0 and 21) and bacterial lipopolysaccharide (50 ug/mouse, intraperitoneal on day 22).
Oral treatment was vehicle alone (1% PEG 400, bid) or the p38 inhibitor (90 mg/kg bid). The duration of treatment was 10 and 20 days in mice with early onset or advanced disease, respectively. Treatment was initiated in mice with early onset or advanced disease. Disease state was determined by clinical scoring performed in a blinded protocol that assigned a maximum per paw value of 3 based upon degree of erythema and swelling observed. Early or advanced disease was judged by clinical scoring, 1.6+0.6 (mean+/−std dev) on day 24 and 9.1±2.6 on day 30, respectively.

[5] = Group C, 4 weeks post-fracture, rofecoxib 3 mg/kg/day
[6] = Groups A and B, 8 weeks post-fx, rofecoxib 3 mg/kg/day
[7] = Group C, 4 weeks post-fracture, 30 mg/kg/day
[8] = Group C, 4 weeks post-fracture, 2×30 mg/kg/day
[9] = Groups A and B (rats 1-57), twice-a-day treated rats
[10] = Groups A and B, 4 weeks post-fx, 30 mg/kg/day
[11] = Groups A and B, 6 weeks post-fx, 30 mg/kg/day
[12] = Groups A and B, 6 weeks post-fx, 2×30 mg/kg/day
[13] = Groups A and B, 8 weeks post-fx, 2×30 mg/kg/day
[14] = advanced disease, 90 mg/kg bid oral, 20 days

CS(=O)(=O)c1ccc(C2=C(c3ccccc3)C(=O)OC2)cc1 [Rofecoxib, rofecoxib, reference compound]
Radiographic score, Mean ([1]; 4 weeks post-fracture, rofecoxib 3 mg/kg oral once a day for 5 days): 0.83
Bridging of the fracture in radiographs ([1]; 4 weeks post-fracture, rofecoxib 3 mg/kg once a day): little or no bridging was evident
NSS = normalized shear stress [2, 5]: 13 ± 9
NTR = normalized torsional rigidity [2, 5]: 19 ± 9
NPT = normalized peak torque ([2]; Group C, 4 weeks post-fracture, rofecoxib 3 mg/kg/day, percentage of fractured femur relative to contralateral femur): 32 ± 3
NPT = normalized peak torque [2, 6]: 57 ± 42
NSS = normalized shear stress [2, 6]: 16 ± 8
NTR = normalized torsional rigidity [2, 6]: 100 ± 82
Fibrous non-unions ([3]; rofecoxib, 5 days of treatment): development of fibrous non-unions in some of the rofecoxib treated rats
Fracture callus histology ([3]; rofecoxib 3 mg/kg once a day): less woven bone formation was observed
Fracture healing (fracture healing in rats): dramatically impaired

COc1cc2c(cc1C(=O)N1CCC(Cc3ccc(F)cc3)CC1)c(C(=O)C(=O)N(C)C)cn2C [compound 25]
Radiographic scores compared with control and rofecoxib ([1]; 4 week post-fracture radiographs, 30 mg/kg once or twice per day): significantly higher scores than the control or rofecoxib treated rats
Radiographic score, Mean ([1]; 4 weeks post-fracture, 30 mg/kg oral once per day for 5 days): 3.2
Radiographic score, Mean ([1]; 4 weeks post-fracture, 30 mg/kg oral twice per day for 5 days): 3.75
Effect on fracture healing (overall) ([1]; oral 30 mg/kg once or twice per day): does not negatively affect fracture healing and can actually enhance or accelerate the healing process
Normalized peak torque compared with rofecoxib and control ([2]; Group C, 4 weeks post-fracture): significantly increased normalized peak torque relative to rofecoxib treated rats but not relative to the control animals
NSS = normalized shear stress [2, 7]: 15 ± 8
NTR = normalized torsional rigidity [2, 7]: 28 ± 24
NPT = normalized peak torque ([2]; Group C, 4 weeks post-fracture, 30 mg/kg/day, percentage of fractured relative to contralateral femur): 50 ± 11
NSS = normalized shear stress [2, 8]: 10 ± 4
NTR = normalized torsional rigidity [2, 8]: 61 ± 55
NPT = normalized peak torque ([2]; Group C, 4 weeks post-fracture, 2×30 mg/kg/day, percentage of fractured relative to contralateral femur): 48 ± 14
normalized peak torque [2, 9]: ~150%
normalized torsional rigidity [2, 9]: ~150%
NPT = normalized peak torque [2, 10]: 57
NSS = normalized shear stress [2, 10]: 14.1
NTR = normalized torsional rigidity [2, 10]: 69
NPT = normalized peak torque [2, 11]: 85 ± 17
NSS = normalized shear stress [2, 11]: 36 ± 11
NTR = normalized torsional rigidity [2, 11]: 109 ± 52
NPT = normalized peak torque [2, 12]: 97
NSS = normalized shear stress [2, 12]: 63
NTR = normalized torsional rigidity [2, 12]: 126
NPT = normalized peak torque [2, 13]: 158 ± 46
NSS = normalized shear stress [2, 13]: 45 ± 1
NTR = normalized torsional rigidity [2, 13]: 156 ± 68
Histological analysis of fracture healing (summary) ([3]; 30 mg/kg once or twice per day): enhanced fracture healing by increasing and/or accelerating calcified cartilage formation as well as new bone formation
Amount of osteoclasts within the fracture callus ([3]; not quantified): appeared to approximate levels found in control rats
Fracture callus histology ([3]; 30 mg/kg once per day): a near normal amount of woven bone but more than normal amounts of chondrocytes
Fracture callus histology ([3]; 30 mg/kg twice per day): advanced healing with the fracture gap almost filled with newly formed woven bone
cartilage and bone healing by histological assessment [4, 14]: evidence of cartilage and bone healing
serum cartilage oligomeric matrix protein (COMP) [4, 14]: reduced serum cartilage oligomeric matrix protein
osteoclast number ([4]; advanced disease, compared to baseline and vehicle treated groups): reduced osteoclast number
clinical scoring ([4]; treatment initiated in advanced disease, 90 mg/kg bid oral, 20 days, vehicle 9.1±2.2): 4.9±1.7

C[C@@H]1CN(Cc2ccc(F)cc2)[C@@H](C)CN1C(=O)c1cc2c(C(=O)C(=O)N(C)C)c[nH]c2cc1Cl [compound 162]
Histological analysis of joint lesion morphology ([4]; treatment initiated at onset of disease, 90 mg/kg bid oral, 10 days): dramatic reduction in all aspects of joint lesion morphology including reduced cartilage and bone erosions
clinical scoring ([4]; treatment initiated at onset of disease, 90 mg/kg bid oral, 10 days, mean ± std dev, vehicle 7.0±3.4): 2.4±1.5
